Values quoted from earlier work, collected in US20250248986A1, “ANTIFUNGAL DRUG INHALATION FORMULATIONS” (priority 2024, published 2025).
Where two headings read alike, the source gives them in different places.

water solubility (neutral conditions)	water solubility (pH 1)	solubility of the free base (pH of about 6.4 or higher)	SMILES
about 1 ng/ml	about 1 μg/ml	–	CCC(C)n1ncn(-c2ccc(N3CCN(c4ccc(OCC5COC(Cn6cncn6)(c6ccc(Cl)cc6Cl)O5)cc4)CC3)cc2)c1=O (racemic) [Itraconazole]
–	–	less than 1 μg/ml	CC[C@@H]([C@H](C)O)n1ncn(-c2ccc(N3CCN(c4ccc(OC[C@@H]5CO[C@@](Cn6cncn6)(c6ccc(F)cc6F)C5)cc4)CC3)cc2)c1=O [Posaconazole]
